Consider 16 molecules from patent US20250025568A1, “COMBINATION OF ANTIBODY-DRUG CONJUGATE AND PARP1 SELECTIVE INHIBITOR” (AstraZeneca UK Limited, priority 2021, published 2025).

The test system of one experiment is BRCA2 −/− DLD-1. As to conditions: 4 day compound dosing; read-out: BRCA2 −/− DLD-1 prolif 4 d IC50; cited from earlier work.
For another experiment, the system named is WT DLD-1. The settings on record: 4 day compound dosing; read-out: WT DLD-1 prolif 4 d IC50; cited from earlier work.
The test system of experiment [1] is NCI-N87 xenograft (gastric cancer cell line). The experiment in a line: Antitumor test in vivo, NCI-N87 xenograft model (Example 4). Also on record: species or system Female Nude mice. As to conditions: DS-1062 10 mg/kg IV single dose, 10 mg/kg. The protocol:
Female Nude mice (Charles River) aged 5-8 weeks were used, following 7 days acclimatisation before entry into the study. 5×10^6 NCI-N87 tumor cells (gastric cancer cell line) (1:1 in Matrigel) were implanted subcutaneously onto the flank of the female Nude mice. When tumors reached approximately 250 mm^3, similar-sized tumors were randomly assigned to treatment groups as shown in Table 6:
(§1) The dose of compound for each animal was calculated based on the individual body weight on the day of dosing. DS-1062 and AZD5305 were dosed on the same day, with DS-1062 being administered approximately 5 hour post the PO dose of AZD5305. DS-1062 was administered as a single dose at 10 mg/kg on day 1, and AZD5305 was administered at 1 mg/kg QD for 21 days. Duration of dosing was for 21 days.
(§2) Tumor growth inhibition (TGI) was calculated as follows:
(§3) where MTV=mean tumor volume.
(§4) Statistical significance was evaluated using one-tailed t-test of (log (relative tumor volume)=log (final vol/start vol)) at the day of final measure, comparing to vehicle control.

Experiment [2] shares this test system. The experiment in a line: Antitumor test (dose regimen optimization) in vivo, NCI-N87 xenograft model (Example 7). More on the design: species or system Female Nude mice. The settings on record: DS-1062 10 mg/kg IV single dose, 10 mg/kg. The method, then:
Female Nude mice (Charles River) aged 5-8 weeks were used, following 7 days acclimatisation before entry into the study. 5×10^6 NCI-N87 tumor cells (gastric cancer cell line) (1:1 in Matrigel) were implanted subcutaneously onto the flank of the female Nude mice. When tumors reached approximately 250 mm^3, similar-sized tumors were randomly assigned to treatment groups as shown in Table 12:
The dose of compound for each animal was calculated based on the individual body weight on the day of dosing. […]

Experiment [3] has the same test system. In words: Antitumor test (dose titration) in vivo, NCI-N87 xenograft model (Example 6). More on the design: species or system Female Nude mice. The settings on record: DS-1062 10 mg/kg IV single dose, 10 mg/kg. The method, then:
Female Nude mice (Charles River) aged 5-8 weeks were used, following 7 days acclimatisation before entry into the study. 5×10^6 NCI-N87 tumor cells (gastric cancer cell line) (1:1 in Matrigel) were implanted subcutaneously onto the flank of the female Nude mice. When tumors reached approximately 250 mm^3, similar-sized tumors were randomly assigned to treatment groups as shown in Table 10:
The dose of compound for each animal was calculated based on the individual body weight on the day of dosing. DS-1062 and AZD5305 were dosed on the same day, with DS-1062 being administered approximately 5 hour post the PO dose of AZD5305. DS-1062 was administered as a single dose at 10 mg/kg on day 1, and AZD5305 was administered at 1, 0.1 or 0.01 mg/kg QD for 21 days. Duration of dosing was for 21 days.

In a further experiment the test system is CTG-3718 ovarian PDX. In words: Antitumor test in vivo, CTG-3718 xenograft model (Example 8). Also on record: species or system nude mice. As to conditions: DS-1062 10 mg/kg IV single dose, 10 mg/kg. The text has this: The human patient-derived xenograft (PDX) model, CTG-3718, was established from fragments of freshly resected tumor of an ovarian cancer patient who relapsed on treatment with PARP inhibitor talazoparib. This PDX was obtained in accordance with appropriate consent procedures. This ovarian PDX model was subcutaneously passaged in vivo as fragments from animal to animal in nude mice. When tumors reached approximately 250 mm^3, similar-sized tumors were randomly assigned to treatment groups as shown in Table 14: […]

The next experiment has as its system CTG-3303 TNBC PDX. The experiment in a line: Antitumor test in vivo, TNBC patient derived xenograft model (Example 5). More on the design: species or system Female Nude mice.
Excerpt: Female Nude mice (Charles River) aged 5-8 weeks were used, following 7 days acclimatisation before entry into the study. The human patient-derived xenograft (PDX) model, CTG-3303, was established from fragments of freshly resected tumor of a triple negative breast cancer (TNBC) patient whom relapsed on treatment with PARP inhibitor talazoparib. This PDX was obtained in accordance with appropriate consent procedures. This TNBC PDX model was subcutaneously passaged in vivo as fragments from animal to animal in nude mice. When tumors reached approximately 250 mm^3, similar-sized tumors were randomly assigned to treatment groups as shown in Table 8:
as §1, §2, §3, §4
In addition, the percentage of mice in each treatment group achieving a complete response (defined as tumor volume <20 mm^3) at day 46 post treatment were calculated and shown in FIG. 19B. Monotherapy with DS-1062 at 10 mg/kg led to 1 out 8 mice (12.5%) achieving a complete response at day 46 post treatment. AZD5305 monotherapy led to 0 out 8 mice (0%) achieving a complete response at day 46 post treatment. Combination treatment of AZD5305 with DS-1062 at 10 mg/kg led to 2 out 8 mice (25%) achieving a complete response at day 46 post treatment and led to higher complete response rates than either respective monotherapy.
In general terms: A xenograft is tissue or cells of one species grown in another, often human tumour cells in immunodeficient mice.

Turning to `CCc1nc2ccc(CN3CCN(c4ccc(C(=O)NC)nc4F)CC3)cc2[nH]c1=O` [Example 12, 5-[4-[(2-ethyl-3-oxo-4H-quinoxalin-6-yl)methyl]piperazin-1-yl]-6-fluoro-N-methyl-pyridine-2-carboxamide], the IC50 in the experiment with BRCA2 −/− DLD-1 is 8 nM; with WT DLD-1 it was over 30 µM.

As for `CCc1nc2ccc(CN3CCN(c4ccc(C(=O)NC)nc4C)CC3)cc2[nH]c1=O` [Example 13, 5-[4-[(2-ethyl-3-oxo-4H-quinoxalin-6-yl)methyl]piperazin-1-yl]-N, 6-dimethyl-pyridine-2-carboxamide], the figures for the IC50 in the experiment with BRCA2 −/− DLD-1 and with WT DLD-1 were 5 nM and over 26 µM, respectively.

With `CCc1nc2ccc(CN3CCN(c4ccc(C(=O)NC)nc4Cl)CC3)cc2[nH]c1=O` [Example 14, 6-chloro-5-[4-[(2-ethyl-3-oxo-4H-quinoxalin-6-yl)methyl]piperazin-1-yl]-N-methyl-pyridine-2-carboxamide], the IC50 in the experiment with BRCA2 −/− DLD-1 is 6 nM; with WT DLD-1, over 30 µM.

Regarding `CNC(=O)c1ccc(N2CCN(Cc3ccc4nc(C(F)(F)F)c(=O)[nH]c4c3)CC2)cn1` [Example 15, N-methyl-5-[4-[[3-oxo-2-(trifluoromethyl)-4H-quinoxalin-6-yl]methyl]piperazin-1-yl]pyridine-2-carboxamide], the figures for the IC50 with BRCA2 −/− DLD-1 and in the experiment with WT DLD-1 were 90 nM and over 30 µM, respectively.

As to `CNC(=O)c1ccc(N2CCN(Cc3ccc4nc(C(F)(F)F)c(=O)[nH]c4c3)CC2)c(Cl)n1` [Example 16, 6-chloro-N-methyl-5-[4-[[3-oxo-2-(trifluoromethyl)-4H-quinoxalin-6-yl]methyl]piperazin-1-yl]pyridine-2-carboxamide], the IC50 with BRCA2 −/− DLD-1 is 18 nM; in the experiment with WT DLD-1, over 22 µM.

On to `CNC(=O)c1ccc(N2CCN(Cc3ccc4nc(C(F)(F)F)c(=O)[nH]c4c3)CC2)c(F)n1` [Example 17, 6-fluoro-N-methyl-5-[4-[[3-oxo-2-(trifluoromethyl)-4H-quinoxalin-6-yl]methyl]piperazin-1-yl]pyridine-2-carboxamide], for which the IC50 in the experiment with BRCA2 −/− DLD-1 is 20 nM; in the experiment on WT DLD-1, over 30 µM.

With `CCCc1nc2ccc(CN3CCN(c4ccc(C(=O)NC)nc4)CC3)cc2[nH]c1=O` [Example 18, N-methyl-5-[4-[(3-oxo-2-propyl-4H-quinoxalin-6-yl)methyl]piperazin-1-yl]pyridine-2-carboxamide], the values for the IC50 in the experiment on BRCA2 −/− DLD-1 and with WT DLD-1 were 4900 nM and over 30 µM, respectively.

For the molecule `CCCc1nc2ccc(CN3CCN(c4ccc(C(=O)NC)nc4F)CC3)cc2[nH]c1=O` [Example 20, 6-fluoro-N-methyl-5-[4-[(3-oxo-2-propyl-4H-quinoxalin-6-yl)methyl]piperazin-1-yl]pyridine-2-carboxamide], the values for the IC50 in the experiment on BRCA2 −/− DLD-1 and with WT DLD-1 were 16 nM and over 24 µM, respectively.

`CCc1nc2cc(F)c(CN3CCN(c4ccc(C(=O)NC)nc4F)CC3)cc2[nH]c1=O` [Example 21, 5-[4-[(2-ethyl-7-fluoro-3-oxo-4H-quinoxalin-6-yl)methyl]piperazin-1-yl]-6-fluoro-N-methyl-pyridine-2-carboxamide]: the IC50 in the experiment on BRCA2 −/− DLD-1 is 16 nM; in the experiment on WT DLD-1, over 30 µM.

In the case of `CNC(=O)c1ccc(N2CCN(Cc3ccc4nc(C(C)(F)F)c(=O)[nH]c4c3)CC2)cn1` [Example 22, 5-[4-[[2-(1,1-difluoroethyl)-3-oxo-4H-quinoxalin-6-yl]methyl]piperazin-1-yl]-N-methyl-pyridine-2-carboxamide], the IC50 is 12 nM with BRCA2 −/− DLD-1 and over 30 µM with WT DLD-1.

In the case of `CNC(=O)c1ccc(N2CCN(Cc3ccc4nc(CC(F)F)c(=O)[nH]c4c3)CC2)c(F)n1` [Example 24, 5-[4-[[2-(2,2-difluoroethyl)-3-oxo-4H-quinoxalin-6-yl]methyl]piperazin-1-yl]-6-fluoro-N-methyl-pyridine-2-carboxamide], the figures for the IC50 with BRCA2 −/− DLD-1 and in the experiment on WT DLD-1 were 10 nM and 14 µM, respectively.

Regarding `CNC(=O)c1ccc(N2CCN(Cc3ccc4nc(CCF)c(=O)[nH]c4c3)CC2)c(F)n1` [Example 26, 6-fluoro-5-[4-[[2-(2-fluoroethyl)-3-oxo-4H-quinoxalin-6-yl]methyl]piperazin-1-yl]-N-methyl-pyridine-2-carboxamide], the IC50 was 5 nM in the experiment on BRCA2 −/− DLD-1 and 23 µM in the experiment with WT DLD-1.

With `CNC(=O)c1ccc(N2CCN(Cc3ccc4nc(CC(F)(F)F)c(=O)[nH]c4c3)CC2)cn1` [Example 27, N-methyl-5-[4-[[3-oxo-2-(2,2,2-trifluoroethyl)-4H-quinoxalin-6-yl]methyl]piperazin-1-yl]pyridine-2-carboxamide], the IC50 is 10300 nM with BRCA2 −/− DLD-1 and over 10 µM in the experiment on WT DLD-1.

In the case of `CNC(=O)c1ccc(N2CCN(Cc3ccc4nc(CC(F)(F)F)c(=O)[nH]c4c3)CC2)c(F)n1` [Example 28, 6-fluoro-N-methyl-5-(4-((3-oxo-2-(2,2,2-trifluoroethyl)-3,4-dihydroquinoxalin-6-yl)methyl)piperazin-1-yl) picolinamide], the IC50 is 27 nM in the experiment on BRCA2 −/− DLD-1 and over 30 µM with WT DLD-1.

As for `CCc1cc2ncc(CN3CCN(c4ccc(C(=O)NC)nc4C(F)F)CC3)cc2[nH]c1=O` [Example 29, 6-(difluoromethyl)-5-[4-[(7-ethyl-6-oxo-5H-1,5-naphthyridin-3-yl)methyl]piperazin-1-yl]-N-methyl-pyridine-2-carboxamide], the IC50 in the experiment on BRCA2 −/− DLD-1 was 7 nM; in the experiment on WT DLD-1 it was over 30 µM.

B1: DS-1062: anti-TROP2 antibody-drug conjugate; exatecan-derivative drug-linker conjugated to the anti-TROP2 antibody via a thioether bond; DAR ~4 (conjugate, chains of the INN, looked up)
VH: QVQLVQSGAEVKKPGASVKVSCKASGYTFTTAGMQWVRQAPGQGLEWMGWINTHSGVPKYAEDFKGRVTISADTSTSTAYLQLSSLKSEDTAVYYCARSGFGSSYWYFDVWGQGTLVTVSS
VL: DIQMTQSPSSLSASVGDRVTITCKASQDVSTAVAWYQQKPGKAPKLLIYSASYRYTGVPSRFSGSGSGTDFTLTISSLQPEDFAVYYCQQHYITPLTFGQGTKLEIK
modifications: exatecan-derivative drug-linker, DAR ~4
As to B1, the “TGI % day 19” value in experiment [1] came to 82%. Moreover, the “TGI % day 52” value in experiment [2] is on record as 84%. The “TGI % day 49” value in experiment [3] turned out to be 75%. The “TGI % day 28” value with CTG-3718 ovarian PDX is 72%. In addition, the “TGI % day 46” value in the experiment on CTG-3303 TNBC PDX (DS-1062 10 mg/kg IV single dose, CTG-3303 TNBC PDX, 10 mg/kg) turned out to be 88%. Also, the “percentage of mice achieving a complete response (tumor volume <20 mm^3)” value in the experiment with CTG-3303 TNBC PDX (day 46 post treatment, DS-1062 10 mg/kg) turned out to be 12.5%.
